From article PMC6150346, “Disrupting VEGF–VEGFR1 Interaction: De Novo Designed Linear Helical Peptides to Mimic the VEGF13-25 Fragment” (Molecules : A Journal of Synthetic Chemistry and Natural …, 2017)
Where two headings read alike, the source gives them in different places.

Experiments:
[1] = molecular target: T1, extracellular domain (ECD, D1–D7) of VEGFR1 (Homo sapiens, UniProt P17948); conditions: cited from earlier work
T1 construct: VEGFR-1 D1-D7 (ECD domain)/Fc Chimera; purchased Bio-techne R&D, Abingdon, UK

[2] = molecular target: T1, extracellular domain (ECD, D1–D7) of VEGFR1; experiment: Chemiluminescent competition (displacement) assay: biotinylated VEGF165 (VEGF-A) vs peptide on coated VEGFR1; format: binding; conditions: for % of Displacement, 100 μM: biotinylated VEGF-A (131 pM btVEGF165) displaced by 100 μM peptide on VEGFR1 ECD (D1–D7), PBS 1% DMSO, 3 h 37 °C; for % of Displacement, 100 μM / % of Displacement, 30 μM: chemiluminescence; for % of Displacement, 100 μM / % of Displacement, 30 μM / IC50: three experiments in triplicate; for % of Displacement, 30 μM + EDTA: biotinylated VEGF-A displaced by 30 μM peptide in the presence of EDTA on VEGFR1 ECD (D1–D7), to avoid false positives from metals or aggregation; for % of Displacement, 30 μM: biotinylated VEGF-A displaced by 30 μM peptide on VEGFR1 ECD (D1–D7); for IC50: dose–response displacement assay on VEGFR1, log(inhibitor) vs. response fit, GraphPad Prism, read-out: IC50 (95% Confident Interval), relative inhibitory concentration 50
Experimental: The binding studies were performed on VEGF isoform VEGF-A (VEGF165) that is the most commonly involved in pathological angiogenesis. Compounds were first evaluated for their ability to displace biotinylated VEGF-A at two different doses, 30 and 100 μM (Table 2). A chemiluminescent assay, relying on competition between tested compounds and biotinylated VEGF-A for binding to the extracellular domain of recombinant VEGFR1, was used.
As described by Muller Y. A. et al., the surface of white high-binding 96-well microplate (Corning Life Sciences, Amsterdam, The Netherlands) was coated with 100 μL of phosphate-buffered saline solution (PBS, pH 7.4) containing 200 ng/mL of VEGFR-1 D1-D7 (ECD domain)/Fc Chimera or 150 ng/mL of VEGFR1 D1-D3/Fc chimera (Bio-techne R&D, Abingdon, UK) and incubated at 4 °C overnight. After three washes with 250 μL of PBS 0.1%, (v/v) tween 20 (buffer A), the plate was blocked by 200 μL of PBS with 3% (w/v) of BSA and stirred at 37 °C for 2 h. The plate was washed three times with buffer A. Then, 100 μL of a solution containing 131 pM of btVEGF165 (Bio-techne, R&D, Abingdon, UK) and the tested compounds at various concentration diluted in PBS containing 1% DMSO were added in each well. After 3 h stirring at 37 °C, the plate was washed four times with buffer A and 100 μL of streptavidin-horseradish peroxidase (Amersham Biosciences, Little Chalfont, UK) diluted at 1:8000 in PBS containing 0.1% (v/v) Tween 20 and 0.3% (w/v) BSA were added per well. After 1 h of incubation at 37 °C under obscurity and stirring, the plate was washed five times with 250 μL of buffer A and 100 μL of SuperSignal West Pico chemiluminescent substrate (Pierce, Appleton, WI, USA) were added. The remaining bt-VEGF165 was detected by chemiluminescence, which was quantified. The percentages of btVEGF165 displacement were calculated by the following formula: percentage of displacement = 100 × [1 − (S − NS)/(MS − NS)], where S is the signal measured, NS is the nonspecific binding signal and MS is the maximum binding signal observed with btVEGF165 without compounds tested. […] Each experiment was performed three times in triplicate.

T1 sequence (P17948 27-758 limits assumed): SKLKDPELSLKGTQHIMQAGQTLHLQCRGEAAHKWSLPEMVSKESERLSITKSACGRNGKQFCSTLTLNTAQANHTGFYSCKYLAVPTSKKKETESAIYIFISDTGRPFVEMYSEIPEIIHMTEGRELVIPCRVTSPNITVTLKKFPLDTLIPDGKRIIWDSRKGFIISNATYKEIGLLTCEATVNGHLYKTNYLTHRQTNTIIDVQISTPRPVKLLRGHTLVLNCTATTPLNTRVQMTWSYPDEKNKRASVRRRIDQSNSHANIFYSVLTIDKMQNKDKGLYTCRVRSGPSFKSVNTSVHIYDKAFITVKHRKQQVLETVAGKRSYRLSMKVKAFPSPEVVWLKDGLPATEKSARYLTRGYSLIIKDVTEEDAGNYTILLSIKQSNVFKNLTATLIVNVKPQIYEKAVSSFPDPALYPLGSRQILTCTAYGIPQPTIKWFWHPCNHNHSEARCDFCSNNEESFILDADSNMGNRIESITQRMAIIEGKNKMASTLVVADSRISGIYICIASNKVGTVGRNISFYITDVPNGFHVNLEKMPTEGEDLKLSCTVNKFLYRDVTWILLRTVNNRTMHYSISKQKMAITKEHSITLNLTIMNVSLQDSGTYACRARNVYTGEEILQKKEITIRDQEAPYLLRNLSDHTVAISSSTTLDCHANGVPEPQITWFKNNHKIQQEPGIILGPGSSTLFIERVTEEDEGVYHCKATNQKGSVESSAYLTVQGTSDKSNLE

For “Ac-KLTWQELYQLKYKGI-NH2 [QK, proangiogenic peptide of D'Andrea and co-workers]”, the IC50 ([1]; displacement of biotinylated VEGF165 from VEGFR1 ECD, previous study, read-out: IC50 (relative inhibitory concentration 50)) is given as 32 ± 8 µM and the “% of Displacement, 100 μM” value ([1]; percentage of biotinylated VEGF165 displaced by 100 μM peptide on whole extracellular domain (ECD, D1–D7) of VEGFR1, previously described peptides) is given as 69 ± 3%.
For Ac-SSEEFARNIAAYN-NH2 [Compound 32], the “% of Displacement, 100 μM” value [2] was 60 ± 1%, the “% of Displacement, 30 μM + EDTA” value [2] was 55 ± 1% and the “% of Displacement, 30 μM” value [2] was 59 ± 4%. For the same substance, the IC50 [2] was 30.4 µM.
With Ac-SSEEFARNWAAFN-NH2 [Compound 12] the “% of Displacement, 100 μM” value [2] was 55 ± 1%, the “% of Displacement, 30 μM + EDTA” value [2] was 53 ± 4% and the “% of Displacement, 30 μM” value [2] was 66 ± 1%. The IC50 [2] was 48.6 µM.
In the case of Ac-SSEEFARNWAAIN-NH2 [Compound 29], the “% of Displacement, 100 μM” value [2] is reported as 72 ± 1%, the “% of Displacement, 30 μM + EDTA” value [2] is reported as 71 ± 2% and the “% of Displacement, 30 μM” value [2] is reported as 60 ± 3%. The IC50 [2] was 0.046 µM.
For Ac-SSEEWARNFAAFN-NH2 [Compound 10], the “% of Displacement, 100 μM” value [2] was 55 ± 1%, the “% of Displacement, 30 μM + EDTA” value [2] was 55 ± 4% and the “% of Displacement, 30 μM” value [2] was 64 ± 3%. It also gave an IC50 [2] of 14.5 µM.
In the case of Ac-SSEEWARNYAAFN-NH2 [Compound 16], the “% of Displacement, 100 μM” value [2] is reported as 62 ± 1%, the “% of Displacement, 30 μM + EDTA” value [2] is reported as 44 ± 5% and the “% of Displacement, 30 μM” value [2] is reported as 71 ± 2%. It also gave an IC50 [2] of 21.3 µM.
In the case of Ac-SSEEYARNWAAFN-NH2 [Compound 14], the “% of Displacement, 100 μM” value [2] is reported as 58 ± 1%, the “% of Displacement, 30 μM + EDTA” value [2] is reported as 56 ± 6% and the “% of Displacement, 30 μM” value [2] is reported as 62 ± 4%. The IC50 [2] was 14 µM.
For Ac-SSEEYARNWAAWN-NH2 [Compound 8], the “% of Displacement, 100 μM” value [2] was 63 ± 2%, the “% of Displacement, 30 μM + EDTA” value [2] was 40 ± 7% and the “% of Displacement, 30 μM” value [2] was 63 ± 1%. For the same substance, the IC50 [2] was 25.6 µM.
